Tests used:
[1] = tested on: TC-71 and RD-ES cell lines; assay: Dose-dependent cytotoxicity assay in ES cell lines; assay type: cell-based, human; details: dose-response at 1, 3, 10 and 30 μmol/L in TC-71 and RD-ES
Method: The plate was installed into the RTCA system, and the electrical impedance (represented as cell index) was measured every 10 min.
The primary screen was based on a direct binding assay using surface plasmon resonance (SPR) technology with purified extracellular domain of CD99 (CD99-ECD) protein that was immobilized on a neutravidin-coated sensor chip. […] A negative control protein was used in order to eliminate non-specific binders. […] Dose-response studies were performed with 2 compounds at 1, 3, 10 and 30 μmol/L concentration in ES cell lines.

[2] = tested on: TC-71, 6647 and RDES ES cells; assay: Soft agar colony formation assay, ES cells; assay type: cell-based, human; details: dose-dependent
Method: Anchorage-independent growth was determined in 0.33% agarose (Sea-Plaque Agarose, Lonza) with a 0.5% agarose underlay. […] Colonies were counted after 7-12 days.

[3] = tested on: TC-CD99-shRNA #1 cells; assay: Soft agar colony formation assay, CD99 knockdown cells; assay type: cell-based, human
[4] = biological target: T1, CD99-ECD (extracellular domain of human CD99) (Homo sapiens, UniProt P14209); assay: SPR binding, CD99-ECD purified from bacteria
T1 construct: the extracellular domain (Asp23-Asp122) of human CD99; made in house; host or cells: Escherichia coli BL21 (DE3)
T1 sequence (P14209 23-122): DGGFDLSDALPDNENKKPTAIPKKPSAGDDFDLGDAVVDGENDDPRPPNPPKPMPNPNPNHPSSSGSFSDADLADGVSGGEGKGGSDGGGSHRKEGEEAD
Source text: The Champion™ pET104 BioEase™ Gateway® Expression System (Invitrogen (Carlsbad, Calif.)) was used to produce CD99-ECD fused with a N-terminal biotin tag, as directed by the manufacturer's instructions. Briefly, the DNA sequence encoding the extracellular domain (Asp23-Asp122) of human CD99 was amplified by PCR using pcDNA3.1 expression vector (Life Technologies (Carlsbad, Calif.)) carrying the full-length human CD99 cDNA transcript variant 1 as template. The primers were designed to include an additional C-terminal 6×His tag in the protein. The PCR product was gel purified with a QIAquick gel extraction kit (Qiagen (Hilden, Germany)) and subcloned into the pDONR 221 entry vector. The entry clone was then subjected to a recombination reaction with pET104.1-DEST destination vector, an expression vector with a N-terminal BioEase tag. The presence of an insert was confirmed by DNA sequencing.
CD99-ECD was expressed in Escherichia coli BL21 (DE3) cells. A saturated overnight culture of cells was diluted by 20-fold into fresh LB medium containing 100 μg/mL ampicillin. To induce the expression of CD99-ECD, cells were grown to OD600nm 0.5-0.7 at 37° C. and induced by the addition of isopropyl-β-D-thiogalactopyranoside to a final concentration of 1 mmol/L. The cultures were grown for an additional 3 h at 37° C. Cells were harvested by centrifugation at 8,000×g for 15 min, resuspended in 50 mmol/L sodium phosphate buffer, pH 7.4, containing 500 mmol/L NaCl, 10 mmol/L imidazole and 1 Complete EDTA-free protease inhibitor tablet/50 mL (Roche Diagnostics), and lysed by sonication. […] Protein fractions were finally eluted with a linear gradient of imidazole (10 to 1000 mmol/L) in the same buffer. The purity of the protein was assessed by SDS-PAGE followed by Coomassie staining. The eluted fractions were stored at −80° C. for further use. […]

[5] = biological target: T2, recombinant human full-length CD99 (Homo sapiens, UniProt P14209); assay: SPR binding kinetics, recombinant human full-length CD99 (Biacore T200); details: full-length CD99 produced in HEK293 cells, immobilized by amine coupling
T2 construct: Purified recombinant human full-length CD99 produced in HEK293 cells was purchased from Origene; purchased Origene #TP304056; host or cells: HEK293
T2 sequence (P14209 23-185): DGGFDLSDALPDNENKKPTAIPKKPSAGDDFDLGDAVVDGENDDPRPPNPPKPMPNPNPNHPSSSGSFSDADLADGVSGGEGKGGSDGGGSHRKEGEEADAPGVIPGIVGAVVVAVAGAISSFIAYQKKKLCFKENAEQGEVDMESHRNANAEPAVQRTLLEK
Method: The initial binding screening of the NCI/DTP chemical libraries was performed on a Biacore T200 instrument at room temperature using a neutravidin-coated CM5 chip (GE Healthcare Bio-Sciences) coupled with biotinylated CD99-ECD on one flow cell at levels of ˜3,000 response units (RU). A negative control protein, Ly6k was immobilized on another flow cell of the same chip (˜11,000 RU), and the first flow cell was left empty for reference subtraction due to nonspecific binding. Analytes were diluted in HBS—P buffer [10 mmol/L HEPES, pH 7.4, 150 mmol/L NaCl, % 0.05 (v/v) surfactant P20], and were injected individually over all flow cells. The running buffer contained appropriate concentrations of DMSO in HBS—P to match the DMSO level of the samples. Kinetic studies for antibody- or compound-CD99 interactions were performed in a Biacore T200 instrument. Purified recombinant human full-length CD99 produced in HEK293 cells was purchased from Origene (Rockville, Md.) (#TP304056). The recombinant human full-length CD99 was immobilized on a CM5 sensor chip by the amine-coupling method in sodium acetate buffer, pH 4.0 (˜10,000 RU). The first flow cell was left empty for background signal subtraction. Kinetic characterization of the interactions was done by injecting increasing concentrations of analytes as indicated over CD99-captured and control surface. KD (equilibrium dissociation constant) values were obtained using BiaEvaluation software (version 1.0) (Biacore) (GE Healthcare). All kinetic experiments were conducted in HBS—P buffer, which contained 1% (v/v) DMSO in case of compounds.

[6] = tested on: TC-71 ES cells; assay: Cell viability IC50, TC-71; assay type: cell-based, human; details: TC-71 cells, WST-1, 48 h (FIG. 10B)
[7] = tested on: A4573 ES cells; assay: Cell viability IC50 (WST-1), A4573; assay type: cell-based, human; details: WST-1, 48 h (FIG. 10B)

Kd [4]	Kd [5]	Molecule	IC50 [1]	colony formation (anchorage-independent growth) [2]	colony formation in CD99 knockdown cells [3]	IC50 [6]	IC50 [7]
		C=C(Cl)C(Cl)(CBr)CCC(Br)C(C)(C)Cl (stereo not shown) [NSC662825]	9 µM				
7.6 µM	3.7 µM	clofarabine-5′-triphosphate		inhibited	diminished	0.17 µM	0.46 µM

— patent publication US11202792B2, “CD99 inhibitors and their uses” (GEORGETOWN UNIVERSITY, priority 2016, dated 2021)
